Active and inactive are the calls of the source. No cut-off for these calls is given here.
How the values were obtained:
Nephotettix cincticeps [1] = experiment: Insecticidal activity against Nephotettix cincticeps (green rice leafhopper) measured after 5 days; assay type: functional
Nephotettix cincticeps [2] = experiment: Insecticidal activity against Nephotettix cincticeps (green rice leafhopper) measured at 100 ppm after 5 days; assay type: functional, organism-based

Row | Structure (SMILES) | LC90 (Nephotettix cincticeps [1]) [ppm] | LC90 (Nephotettix cincticeps [2])
1 | O=[N+]([O-])/C=C1\NCCN1Cc1ccccc1 | 200 | 
2 | O=[N+]([O-])/C=C1\NCCN1Cc1cccc(Cl)c1 | 200 | 
3 | Cc1ccc(CN2CCN/C2=C\[N+](=O)[O-])cn1 | 1.6 | 
4 | COc1ccc(CN2CCN/C2=C\[N+](=O)[O-])cc1 | 200 | 
5 | O=[N+]([O-])/C=C1\NCCN1Cc1ccc(Cl)cc1 | 40 | 
6 | O=[N+]([O-])/C=C1\NCCN1Cc1ccccn1 | 200 | 
7 | O=[N+]([O-])/C=C1\NCCN1Cc1ccnc(Cl)c1 | 200 | 
8 | O=[N+]([O-])/C=C1\NCCN1Cc1cccnc1 | 8 | 
9 | O=[N+]([O-])/C=C1\NCCN1Cc1ccncc1 | 8 | 
10 | O=[N+]([O-])/C=C1\NCCN1Cc1ccc(Br)nc1 | 0.32 | 
11 | O=[N+]([O-])/C=C1\NCCN1Cc1cncc(Cl)c1 | 40 | 
12 | O=[N+]([O-])/C=C1\NCCN1Cc1ccc(Cl)nc1 | 0.32 | 
13 | O=[N+]([O-])/C=C1\NCCN1Cc1ccc(Cl)cn1 | 200 | 
14 | O=[N+]([O-])/C=C1\NCCN1Cc1cccnc1Cl | 200 | 
15 | O=[N+]([O-])/C=C1\NCCN1Cc1ccc([N+](=O)[O-])cc1 | 200 | 
16 | CSc1ccc(CN2CCN/C2=C\[N+](=O)[O-])cn1 | 1000 | 
17 | N#Cc1ccc(CN2CCN/C2=C\[N+](=O)[O-])cn1 | 200 | 
18 | O=[N+]([O-])/C=C1\NCCN1Cc1ccc(C(F)(F)F)nc1 | 8 | 
19 | O=[N+]([O-])/C=C1\NCCN1Cc1ccccc1Cl |  | inactive
20 | Cc1ccc(CN2CCN/C2=C\[N+](=O)[O-])cc1 | 200 | 
21 | O=[N+]([O-])C=C1NCCN1 [2-(NITROMETHYLENE)IMIDAZOLIDINE] | 1000 | 
22 | O=[N+]([O-])/C=C1\NCCN1Cc1ccc(F)nc1 | 0.32 | 
